Test results as given in PMC7466753, “An epoxide hydrolase from endophytic Streptomyces shows unique structural features and wide biocatalytic activity” (Acta Crystallographica. Section D, Structural Biology, 2020).

Tests used:
B1EPH2 = target: T1, B1EPH2 (Streptomyces sp. CBMAI 2042, UniProt A0ACD6BAW7); assay: adrenaline test (periodate back-titration, […] nm); format: biochemical; conditions: pH 6.0 sodium phosphate; racemic substrate in DMSO
T1 construct: gene STAN_0072; ORF in pET-29b(+), E. coli BL21(DE3), nickel IMAC and gel filtration; protomer 37 kDa, hexamer (252 kDa by gel filtration)

[1] = target: the molecule itself; assay: crystal structure; X-ray, 2.2 Å, space group P4(1)22; hanging drop, 0.1 M sodium cacodylate pH 6.5, 1 M trisodium citrate, protein 12.5 mg/ml in 50 mM HEPES pH 8.0, 300 mM NaCl; three protomers in the asymmetric unit, hexamer by twofold crystallographic symmetry

c1ccc(OCC2CO2)cc1 (racemic) [compound 3, phenyl glycidyl ether]
% conversion relative to 1,2-cyclohexanediol (B1EPH2): 25%

B1: B1EPH2, α/β-epoxide hydrolase from Streptomyces sp. CBMAI 2042 (enzyme)
chain: VPQPPTDDPTTPAEKGAVHRLVDTPGGRIHLVEQGTGPLVLLVHGFPESWYSWRHQLPALAAAGYRAAAIDVRGYGRSAKPAATDAYRMLAHVADNTAVVHALGEETATVVGHDWGSPIAANSALLRPDVFTAVGLLSVPYAPRGEHRPTDGFARIGGDEEFYVSYFQAPGRAEAEIERDVRGWLAGFYTGLTGGALTPEEHGRLFFVPPGAHLADRFPTGPLPAWLTEADLDVYSGEFERSGLTGALNRYRNVDRDWEDLAAWHGAPITQPSLFIGGALDASTTWMADALDAYPATLPGLSAAHILEGCGHWIQQERPDEVNRLLTQWLDGLR
notes: B1EPH2, putative α/β-epoxide hydrolase of Streptomyces sp; CBMAI 2042; the text says 344 amino acids; the b1eph2 ORF was amplified from genomic DNA and cloned into pET-29b(+) (plasmid pGTEPH2); Hexamer by the crystal structure (three protomers in the asymmetric unit, twofold crystallographic symmetry) and by analytical gel filtration; they are surmised from pET-29b(+) and the nickel column; also …
stoichiometry N [1]: 6
